The values that follow come from patent publication US7439263B2, “Pyrrolidine and thiazolidine compounds” (Les Laboratoires Servier, priority 2004, dated 2008).

Where a name gives a salt, the structure may show the parent alone.

In the assay the target is T1, Dipeptidyl-Peptidase IV (DPP IV) (Sus scrofa, UniProt P22411).
T1 construct: using 10 μl of the pig kidney preparation; from tissue; host or cells: pig kidney membrane fraction, solubilised with n-octyl-β-glucopyranoside
T1 sequence (P22411 whole entry): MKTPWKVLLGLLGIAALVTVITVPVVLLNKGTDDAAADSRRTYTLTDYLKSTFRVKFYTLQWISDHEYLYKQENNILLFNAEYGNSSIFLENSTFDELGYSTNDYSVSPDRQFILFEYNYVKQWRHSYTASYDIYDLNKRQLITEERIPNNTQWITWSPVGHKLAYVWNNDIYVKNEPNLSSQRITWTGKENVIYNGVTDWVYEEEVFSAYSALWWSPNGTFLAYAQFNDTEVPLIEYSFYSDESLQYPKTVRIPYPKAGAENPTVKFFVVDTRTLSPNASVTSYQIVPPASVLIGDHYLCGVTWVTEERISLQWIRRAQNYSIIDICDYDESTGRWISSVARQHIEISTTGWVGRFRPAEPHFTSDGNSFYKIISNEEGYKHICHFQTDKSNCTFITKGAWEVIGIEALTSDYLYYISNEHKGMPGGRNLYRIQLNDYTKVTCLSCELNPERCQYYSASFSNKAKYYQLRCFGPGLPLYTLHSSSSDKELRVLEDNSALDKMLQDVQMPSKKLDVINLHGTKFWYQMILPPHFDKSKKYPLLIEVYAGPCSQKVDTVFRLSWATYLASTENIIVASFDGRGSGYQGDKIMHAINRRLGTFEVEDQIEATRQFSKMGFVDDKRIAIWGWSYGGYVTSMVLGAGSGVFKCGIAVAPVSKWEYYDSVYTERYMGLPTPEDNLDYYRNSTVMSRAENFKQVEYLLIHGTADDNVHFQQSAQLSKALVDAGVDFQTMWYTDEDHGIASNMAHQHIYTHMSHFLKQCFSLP
Kind of assay: Inhibition of dipeptidyl-peptidase IV in pig kidney (Gly-Pro-pNA cleavage, absorbance at 405 nm). The format is biochemical. The note with it: pig kidney membrane preparation; substrate Gly-Pro-pNA; 60 min at 37° C.; geometric mean of the IC50s. As to the method: Inhibition of Dipeptidyl-Peptidase IV in Pig Kidney
Preparation of the Membrane Fraction of Pig Kidney
Pig kidney tissue (large white pig, 2 to 3 months' old) was homogenised (5 g of tissue in 15 ml of Tris buffer (114 mM, pH 7.8-8)) and then centrifuged at 150000×g for 30 min. at 4° C. The pellet was taken up in 15 ml of buffer and re-centrifuged at 150000×g for 30 min. at 4° C. With stirring, the resulting pellet was dissolved in 15 ml of buffer with 60 mM n-octyl-β-glucopyranoside for 30 min. at ambient temperature. After centrifugation at 150000×g for 30 min. at 4° C., the supernatant was dialysed (MWCO 12-14000) against 114 mM Tris pH 7.8-8, and then divided into aliquots at —80° C.
Measurement of Dipetidyl Peptidase IV (DPP IV) Activity
The enzymatic activity is measured by cleavage of a chromogenic substrate, glycyl-prolyl-p-nitroanilide (Gly-Pro-pNA), giving Gly-Pro and pNA (p-nitroaniline); the latter is detected by absorbance at 405 nm. The activity is measured in the absence (control) or in the presence of 10 μl of the inhibitors, using 10 μl of the pig kidney preparation (0.81 mU, 1U=1 μmol of pNA product/min. at 37° C.). Incubation is started by adding the substrate (250 μl), dissolved in Tris buffer (114 mM) pH 7.8-8, over a period of 60 min. at 37° C. […] The results were expressed as a percentage of the control, and the IC50 values (effective dose for 50% inhibition of the control activity) were determined using non-linear analysis between 0 and 100%, (GraphPad Prism version 4.01 for Windows). Each measurement was carried out in quadruplicate and each IC50 determination was carried out from 1 to 5 times.
The results obtained (geometric mean of the IC50s) for the compounds representing the invention are compiled in the following Table: […]
For `N#C[C@@H]1CCCN1C(=O)CNC1(CO)CCC2(CCOCC2)CC1` [Example 1, (2S)-1-({[9-(Hydroxymethyl)-3-oxaspiro[5.5]undec-9-yl]amino}-acetyl)-2-pyrrolidinecarbonitrile], the IC50 was 76.1 nM.

`N#C[C@@H]1CCCN1C(=O)CNC1(CO)CC2(CCCC2)C1` [Example 17, (2S)-1-({[2-(Hydroxymethyl)spiro[3.4]oct-2-yl]amino}acetyl)-2-pyrrolidinecarbonitrile hydrochloride] yielded an IC50 of 43.6 nM.

With `N#C[C@@H]1CCCN1C(=O)CNC1CCC2(CCSCC2)CC1` [Example 23, (2S)-1-[(3-Thiaspiro[5.5]undec-9-ylamino)acetyl]-2-pyrrolidine-carbonitrile hydrochloride], it took 27 nM to reach half-maximal inhibition (IC50).

On to `N#C[C@@H]1CC(F)(F)CN1C(=O)CNC1(CO)CCC2(CCOCC2)CC1` [Example 30, (2S)-4,4-Difluoro-1-({[9-(hydroxymethyl)-3-oxaspiro[5.5]undec-9-yl]amino}acetyl)-2-pyrrolidinecarbonitrile], for which half-maximal inhibition (IC50) was put at 20.5 nM. This IC50 and that of the compound before are within 1.5-fold of each other.

As for `N#C[C@@H]1CSCN1C(=O)CNC1CCC2(CCCCC2)CC1` [Example 18, (4R)-3-[(Spiro[5.5]undec-3-yl-amino)acetyl]-1,3-thiazolidine-4-carbonitrile trifluoroacetate], 3.5 nM corresponded to half-maximal inhibition (IC50).

In turn, `N#C[C@@H]1CCCN1C(=O)CNC1CCC2(CC1)CCC1(CCCCC1)CC2` [Example 8, (2S)-1-[(Dispiro[5.2.5.2]hexadec-3-ylamino)acetyl]-2-pyrrolidine-carbonitrile] displayed a concentration for half-maximal inhibition (IC50) of 23 nM.

For the compound `N#C[C@@H]1CCCN1C(=O)CNC1CCC2(CCCCCCC2)CC1` [Example 6, (2S)-1-[(Spiro[5.7]tridec-3-ylamino)acetyl]-2-pyrrolidinecarbonitrile hydrochloride], half-maximal inhibition (IC50) was put at 27.2 nM. This IC50 and that of the compound before are within 1.5-fold of each other.

`N#C[C@@H]1C[C@H](F)CN1C(=O)CNC1(CO)CCC2(CCOCC2)CC1` [Example 29, (2S,4S)4-Fluoro-1-({[9-(hydroxymethyl)-3-oxaspiro[5.5]undec-9-yl]-amino}acetyl)-2-pyrrolidinecarbonitrile] had an IC50 of 31.6 nM. The IC50 values of the last two compounds are within 1.5-fold of each other.

Consider `N#C[C@@H]1CCCN1C(=O)CNC1(CO)CCC2(CCCCC2)CC1` [Example 5, (2S)-1-({[3-(Hydroxymethyl)spiro[5.5]undec-3-yl]amino}acetyl)-2-pyrrolidinecarbonitrile], for which it took 68.5 nM to reach half-maximal inhibition (IC50).

`N#C[C@@H]1CCCN1C(=O)CNC1CCC2(CCNCC2)CC1` [Example 20, (2S)-1-[(3-Azaspiro[5.5]undec-9-ylamino)acetyl]-2-pyrrolidine-carbonitrile bis(trifluoroacetate)] gave an IC50 of 73.1 nM.

With `N#C[C@@H]1CCCN1C(=O)CNC1CCC2(CC1)CC2` [Example 28, (2S)-1-[(Spiro[2.5]oct-6-ylamino)acetyl]-2-pyrrolidinecarbonitrile], half-maximal inhibition (IC50) required 171 nM.

The IC50 is the concentration that gives 50% inhibition. Read a low IC50 as inhibition by little substance.
